# Results as given in patent US20220009906A1, “ISOINDOLIN-1-ONE DERIVATIVES USEFUL AS GRK2 INHIBITORS” (priority 2020, published 2022).
# “And” between values parts separate entries of the source, which are not always exact repeats. Equal values may be shown once.
# Target: T1, GRK2 (Homo sapiens, UniProt P25098)
# T1 sequence (P25098 1-689): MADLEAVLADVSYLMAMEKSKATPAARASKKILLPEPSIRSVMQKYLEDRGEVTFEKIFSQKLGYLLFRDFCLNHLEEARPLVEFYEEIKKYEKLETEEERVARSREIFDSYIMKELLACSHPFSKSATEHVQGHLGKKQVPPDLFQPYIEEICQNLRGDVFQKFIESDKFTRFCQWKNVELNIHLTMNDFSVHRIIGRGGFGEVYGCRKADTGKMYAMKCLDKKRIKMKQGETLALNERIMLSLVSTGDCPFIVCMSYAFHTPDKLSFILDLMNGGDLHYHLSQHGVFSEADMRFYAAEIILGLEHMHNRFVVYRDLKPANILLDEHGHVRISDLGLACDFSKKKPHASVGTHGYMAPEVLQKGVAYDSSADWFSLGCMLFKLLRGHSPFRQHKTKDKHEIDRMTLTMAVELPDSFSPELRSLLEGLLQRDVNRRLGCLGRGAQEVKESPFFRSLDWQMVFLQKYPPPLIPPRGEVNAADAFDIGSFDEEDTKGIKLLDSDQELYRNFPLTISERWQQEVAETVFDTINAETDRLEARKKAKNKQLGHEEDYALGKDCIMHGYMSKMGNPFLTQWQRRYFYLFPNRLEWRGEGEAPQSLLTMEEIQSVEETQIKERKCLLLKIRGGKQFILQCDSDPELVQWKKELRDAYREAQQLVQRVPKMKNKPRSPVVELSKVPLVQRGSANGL
# Test: hGRK2 LANCE Ultra In Vitro Assay
# Assay type: biochemical
# Details: Biological Example 1 GRK2 Lancer IC50 (μM), 10 nM GRK2; 30 or 600 μM ATP (not stated which); multiple measurements listed individually
# How it was run: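 TR-FRET kinase assay with 10 nM GRK2 preincubated 30 min with compound, then 200 nM ULight-peptide and 30 or 600 μM ATP in HEPES pH 7.5, 10 mM MgCl2, 1% DMSO; 120 or 60 min at ambient temperature respectively.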
row,Structure (SMILES),IC50 [µM]
1,"COc1cccc([C@@H](C)N2Cc3c(cc(-c4cn[nH]c4)cc3-c3ccc(C(C)(C)O)nc3)C2=O)c1 [Compound 141, (R)-4-(6-(2-hydroxypropan-2-yl)pyridin-3-yl)-2-(1-(3-methoxyphenyl)ethyl)-6-(1H-pyrazol-4-yl)isoindolin-1-one]",0.02
2,"COc1cccc(C(CO)N2Cc3c(cc(-c4cn[nH]c4)cc3-c3cccnc3)C2=O)c1 (stereo not shown) [Compound 142, 2-(2-hydroxy-1-(3-methoxyphenyl)ethyl)-6-(1H-pyrazol-4-yl)-4-(pyridin-3-yl)isoindolin-1-one]",0.008
3,"COc1cccc(C(CO)N2Cc3c(cc(-c4cn[nH]c4)cc3-c3cccc(O)c3)C2=O)c1 (stereo not shown) [Compound 143, 2-(2-hydroxy-1-(3-methoxyphenyl)ethyl)-4-(3-hydroxyphenyl)-6-(1H-pyrazol-4-yl)isoindolin-1-one]",0.005
4,"COc1cccc([C@@H](C)N2Cc3c(cc(-c4cn[nH]c4)cc3-c3ccc(C(F)(F)F)nc3)C2=O)c1 [Compound 145, (R)-2-(1-(3-methoxyphenyl)ethyl)-6-(1H-pyrazol-4-yl)-4-(6-(trifluoromethyl)pyridin-3-yl)isoindolin-1-one]",0.285
5,"COc1cccc(CN2C(=O)c3cc(-c4cn[nH]c4)ccc3C23CCC2NC(=O)OC23)c1 (stereo not shown) [Compound 150, 2′-(3-methoxybenzyl)-5′-(1H-pyrazol-4-yl)-3a,4,5,6a-tetrahydrospiro[cyclopenta[d]oxazole-6,1′-isoindoline]-2,3′(3H)-dione]",0.013
6,"COc1cccc(CN2C(=O)c3cc(-c4cn[nH]c4)ccc3C23CCC2OC(=O)NC23)c1 (stereo not shown) [Compound 151, 2′-(3-methoxybenzyl)-5′-(1H-pyrazol-4-yl)-3a,5,6,6a-tetrahydrospiro[cyclopenta[d]oxazole-4,1′-isoindoline]-2,3′(3H)-dione]",0.011
7,"COc1cccc(C(CO)N2Cc3c(cc(-c4cn[nH]c4)cc3-c3cncc(F)c3)C2=O)c1 (stereo not shown) [Compound 152, 4-(5-fluoropyridin-3-yl)-2-(2-hydroxy-1-(3-methoxyphenyl)ethyl)-6-(1H-pyrazol-4-yl)isoindolin-1-one]",0.017
8,"COc1cccc(C(CO)N2Cc3c(cc(-c4cn[nH]c4)cc3-c3ccc(O)cc3)C2=O)c1 (stereo not shown) [Compound 153, 2-(2-Hydroxy-1-(3-methoxyphenyl)ethyl)-4-(4-hydroxyphenyl)-6-(1H-pyrazol-4-yl)isoindolin-1-one]",0.019
9,"COc1cccc([C@@H](C)N2Cc3c(cc(-c4cn[nH]c4)cc3-c3ccnc(C(C)(C)C)c3)C2=O)c1 [Compound 154, (R)-4-(2-(tert-butyl)pyridin-4-yl)-2-(1-(3-methoxyphenyl)ethyl)-6-(1H-pyrazol-4-yl)isoindolin-1-one]",0.932
10,"COc1cccc([C@@H](C)N2Cc3c(cc(-c4cn[nH]c4)cc3N3CCNCC3)C2=O)c1 [Compound 155, (R)-2-(1-(3-methoxyphenyl)ethyl)-4-(piperazin-1-yl)-6-(1H-pyrazol-4-yl)isoindolin-1-one]",0.007
11,"COc1cccc([C@@H](C)N2Cc3c(cc(-c4cn[nH]c4)cc3N3CCN(C)CC3)C2=O)c1 [Compound 156, (R)-2-(1-(3-methoxyphenyl)ethyl)-4-(4-methylpiperazin-1-yl)-6-(1H-pyrazol-4-yl)isoindolin-1-one]",0.011
12,"COc1cccc(C(CO)N2Cc3c(cc(-c4cn[nH]c4)cc3-c3cncnc3)C2=O)c1 (stereo not shown) [Compound 158, 2-(2-hydroxy-1-(3-methoxyphenyl)ethyl)-6-(1H-pyrazol-4-yl)-4-(pyrimidin-5-yl)isoindolin-1-one]",0.027
13,CC(C)NC(=O)c1cccc(CN2Cc3cc(F)c(-c4cn[nH]c4)cc3C2=O)c1 [Compound 166],0.005
14,CCOc1cccc([C@@H](C)N2Cc3ccc(-c4ccnc5[nH]ccc45)cc3C2=O)c1 [Compound 167],> 20
15,COc1cccc(C(C(=O)N(C)C)N2Cc3ccc(-c4cn[nH]c4)cc3C2=O)c1 (stereo not shown) [Compound 168],0.146
16,COc1cccc([C@@H](C(=O)O)N2Cc3ccc(-c4cn[nH]c4)cc3C2=O)c1 [Compound 169],0.542
17,COc1cccc(CN2C(=O)c3cc(-c4cn[nH]c4)ccc3C23CCC(OC)C3)c1 (stereo not shown) [Compound 170],0.006
18,CCOc1cccc([C@@H](C)N2Cc3ccc(-c4ncccn4)cc3C2=O)c1 [Compound 171],0.104
19,O=C(NC1CC2CCC1C2)c1cccc(CN2Cc3ccc(-c4cn[nH]c4)cc3C2=O)c1 (stereo not shown) [Compound 174],0.003

# Same assay, conditions: read-out: Biological Example 1 GRK2 Lancer IC50; 10 nM GRK2; 30 or 600 μM ATP (not stated which); multiple measurements listed individually
row,Structure (SMILES),IC50 [µM]
1,"COc1cccc([C@@H](C)N2Cc3c(cc(-c4cn[nH]c4)cc3C3CCNC3)C2=O)c1 (stereo partly drawn) [Compound 144, 2-((R)-1-(3-methoxyphenyl)ethyl)-6-(1H-pyrazol-4-yl)-4-(pyrrolidin-3-yl)isoindolin-1-one]",0.007

# Target: T1, GRK2
# Test: GRK2 Transcreener Assay
# Assay type: biochemical
# Details: Biological Example 2 GRK2 Transcreener IC50 (μM), 10 nM GRK2; 10 μM ATP; 150 μM peptide substrate; multiple measurements listed individually
# Method: Positive and negative control wells received an equal volume of DMSO. The final DMSO concentration in the assay is 1%.
# The plate was placed in centrifuge equipped with a spin-bucket rotor and spun for 1 min at 1000 rpm.
# GRK2 enzymatic reactions were initiated with the addition of 2 μL/well of 50 nM GRK2 in assay buffer. Plates were centrifuged for 1 min at 1000 rpm. For negative control wells, the order of reagent addition was reversed: 10 μL/well ADP detection mix (see below) was added first, followed by the addition of 2 μL/well of the GRK2 solution. Reaction mixtures were incubated at ambient temperature for 2 hours. Final concentrations of reagents in the assays were as follows:
# Following incubation, the reactions were quenched with 10 μL/well of the Transcreener ADP detection mix. […] The plates were then centrifuged for 1 min at 1000 rpm.
# Fluorescence polarization values of the reaction mixtures were read on a Safire plate reader after a 60 min incubation at ambient temperature. Excitation wavelength=590 nm; emission wavelength=650 nm.
# The fluorescence polarization data were converted to % activity as follows:
# % activity=(sample−NC)/(PC−NC)*100
# where NC is the mean of negative control (ADP detection mix added prior to GRK2 addition), and PC is the mean of positive control (GRK2 reaction without inhibitor). IC50 values are determined from a 4-parameter fit, using the following equation:
# Y=Bottom+(Top−Bottom)/(1+10^((Log IC50−X)*Hill slope))
# where X=log10 of the compound concentration.
row,Structure (SMILES),IC50
1,"COc1cccc(CN2Cc3ccc(-c4cn[nH]c4)cc3C2=O)c1 [Compound 1, 2-(3-methoxybenzyl)-6-(1H-pyrazol-4-yl)isoindolin-1-one]",< 0.005 µM and 0.005 µM
2,"CCOc1cccc(CN2Cc3ccc(-c4cn[nH]c4)cc3C2=O)c1 [Compound 2, 2-(3-ethoxybenzyl)-6-(1H-pyrazol-4-yl)isoindolin-1-one]",0.009 µM
3,COc1cccc(CN2Cc3ccc(-c4ccnc(N)n4)cc3C2=O)c1 [Compound 4],0.08 µM
4,"COc1cccc(CN2C(=O)c3cc(-c4cn[nH]c4)ccc3C23CC=CC3)c1 [Compound 6, 2′-(3-methoxybenzyl)-5′-(1H-pyrazol-4-yl)spiro[cyclopentane-1,1′-isoindolin]-3-en-3′-one]",0.01 µM
5,"COc1cccc(CN2C(=O)c3cc(-c4cn[nH]c4)ccc3C2(C)C)c1 [Compound 7, 2-(3-methoxybenzyl)-3,3-dimethyl-6-(1H-pyrazol-4-yl)isoindolin-1-one]",0.005 µM
6,"COc1cccc(CN2C(=O)c3cc(-c4cn[nH]c4)ccc3C23CC(O)C(O)C3)c1 (stereo not shown) [Compound 8, 3,4-dihydroxy-2′-(3-methoxybenzyl)-5′-(1H-pyrazol-4-yl)spiro[cyclopentane-1,1′-isoindolin]-3′-one]",0.009 µM
7,CS(=O)(=O)Nc1cccc(CN2Cc3ccc(-c4cn[nH]c4)cc3C2=O)c1 [Compound 9],0.291 µM
8,CS(=O)(=O)Nc1cccc(CN2Cc3ccc(-c4ccnc5[nH]ccc45)cc3C2=O)c1 [Compound 10],0.719 µM
9,CCOc1cccc(CN2Cc3ccc(-c4ccnc(N)n4)cc3C2=O)c1 [Compound 11],0.383 µM
10,"COc1cccc(CN2C(=O)c3cc(-c4cn[nH]c4)ccc3C23CCNCC3)c1 [Compound 14, 2-(3-methoxybenzyl)-5-(1H-pyrazol-4-yl)spiro[isoindoline-1,4′-piperidin]-3-one]",< 0.005 µM
11,"O=C1c2cc(-c3cn[nH]c3)ccc2CN1Cc1cccc(F)c1 [Compound 16, 2-(3-Fluorobenzyl)-6-(1H-pyrazol-4-yl)isoindolin-1-one]",0.017 µM
12,"COc1cccc(CN2C(=O)c3cc(-c4ccnc(N)n4)ccc3C2(C)C)c1 [Compound 17, 6-(2-aminopyrimidin-4-yl)-2-(3-methoxybenzyl)-3,3-dimethylisoindolin-1-one]",0.048 µM
13,O=C(O)c1cccc(CN2Cc3ccc(-c4cn[nH]c4)cc3C2=O)c1 [Compound 18],0.139 µM
14,"COc1cccc(CN2Cc3ccc(-c4c[nH]nn4)cc3C2=O)c1 [Compound 20, 2-(3-methoxybenzyl)-6-(1H-1,2,3-triazol-4-yl)isoindolin-1-one]",0.02 µM
